This note sets out measurements from patent publication US8410126B2, “Pyrimidine inhibitors of PKTK2” (Boehringer Ingelheim International GmbH, priority 2009, dated 2013).

For experiment [1], the target named is T1, PTK2 (Homo sapiens, UniProt Q05397).
T1 construct: purchased Invitrogen PV3832
The experiment can be described thus: PTK2 enzyme test Assay 1 (DELFIA, poly-Glu-Tyr substrate, PT60 antibody). The experiment is classed as biochemical. The following applies: Assay 1 (values without *); 1 h pre-incubation, 50 μM ATP mix, final DMSO 2%. As to the method:
This test uses active PTK2 enzyme (Invitrogen Code PV3832) and poly-Glu-Tyr (4:1, Sigma P-0275) as the kinase substrate. The kinase activity is detected through the phosphorylation of the substrate in a DELFIA™ assay. The phosphorylated substrate is detected with the europium-labelled phosphotyrosine antibody PT60 (Perkin Elmer, No.: AD00400).
In order to determine concentration-activity curves with PTK2-inhibitors the compounds are serially diluted in 10% DMSO/H2O and 10 μL of each dilution are placed in each well of a 96-well microtitre plate (clear plate with a U-shaped base, Greiner No. 650101) (the inhibitors are tested in duplicates) and mixed with 10 μL/well of PTK2 kinase (0.01 μg/well). PTK2 kinase has been correspondingly diluted beforehand with kinase dilution buffer (20 mM TRIS/HCl pH 7.5, 0.1 mM EDTA, 0.1 mM EGTA, 0.286 mM sodium orthovanadate, 10% glycerol with the addition of freshly prepared BSA (fraction V, 1 mg/mL) and DTT (1 mM)). The test compound and the PTK2 kinase are pre-incubated for 1 h at RT and shaken at 500 revolutions per min. The reaction is started by the addition of 10 μL/well poly (Glu,Tyr) substrate (25 μg/well poly (Glu, Tyr), 0.05 μg/well biotinylated poly (Glu,Tyr) dissolved in 250 mM TRIS/HCl pH 7.5, 9 mM DTT)—the final concentration of DMSO is 2%. Then 20 μL of ATP Mix (30 mM TRIS/HCl pH 7.5, 0.02% Brij, 0.2 mM sodium orthovanadate, 10 mM magnesium acetate, 0.1 mM EGTA, 1× phosphatase inhibitor cocktail 1 (Sigma, No.: P2850), 50 μM ATP (Sigma, No.: A3377; 15 mM stock solution)) are added. After 1 h of kinase reaction (the plates are shaken at 500 rpm), the reaction is stopped by the addition of 12 μL/well 100 mM EDTA, pH 8.0 and shaken for a further 5 min at RT (500 rpm). 55 μL of the reaction mixture are transferred into a streptavidin plate (Strepta Well High Bind (transparent, 96-well) made by Roche, No.: 11989685001) and incubated for 1 h at RT (shaking at 500 rpm). Then the microtitre plate is washed three times with 200 μL/well D-PBS (Invitrogen, No. 14190). 100 μL of a solution containing DELFIA Eu-N1 Anti-Phosphotyrosine PT60 antibody (Perkin Elmer, No.: AD0040, diluted 1:2000 in DELFIA test buffer (Perkin Elmer, No.: 1244-111)) is then added and the mixture is incubated for 1 h at RT (shaking at 500 rpm). Then the plate is washed three times with 200 μL/well DELFIA washing buffer (Perkin Elmer, No.: 1244-114), 200 μL/well strengthening solution (Perkin Elmer, No.: 1244-105) are added and the mixture is incubated for 10 min at RT (shaking at 300 rpm).
The time-delayed europium fluorescence is then measured in a microtitre plate reader (VICTOR^3, Perkin Elmer). […] Wells that contain test buffer instead of enzyme are used as a control of the background kinase activity.
The IC50 values are determined from analyses of the concentration activity by iterative calculation with the aid of a sigmoid curve analysis algorithm (FIFTY, based on GraphPAD Prism Version 3.03) with a variable Hill coefficient.

Experiment [2] addresses T1, PTK2. Put plainly: PTK2 enzyme test Assay 2 (DELFIA, poly-Glu-Tyr substrate, PT66 antibody). The class given is biochemical. The following applies: Assay 2 (values marked *); 1 h pre-incubation, 50 μM ATP mix, final DMSO 0.5%. An excerpt:
This test uses active PTK2 enzyme (Invitrogen Code PV3832) and poly-Glu-Tyr (4:1, Sigma P-0275) as the kinase substrate. The kinase activity is detected by means of the phosphorylation of the substrate in a DELFIA™ assay. The phosphorylated substrate is detected with the europium-labelled phosphotyrosine antibody PT66 (Perkin Elmer, No.: AD0040).
In order to determine concentration-activity curves with PTK2-inhibitors the compounds are serially diluted first of all in 100% DMSO and then in kinase dilution buffer (20 mM TRIS/HCl pH 7.5, 0.1 mM EDTA, 0.1 mM EGTA, 0.286 mM sodium orthovanadate, 10% glycerol with the addition of freshly prepared BSA (fraction V, 1 mg/mL) and DTT (1 mM)) and 10 μL of each dilution are dispensed per well in a 96-well microtitre plate (clear U-shaped base plate, Greiner No. 650101) (the inhibitors are tested in duplicates) and mixed with 10 μL/well of PTK2 kinase (0.01 μg/well). PTK2 kinase is diluted accordingly beforehand with kinase dilution buffer. The diluted PTK2 inhibitor and the PTK2 kinase are pre-incubated for 1 h at RT and shaken at 500 revolutions per min. Then 10 μL/well poly-Glu-Tyr substrate (25 μg/well poly-Glu-Tyr, 0.05 μg/well biotinylated poly-Glu-Tyr dissolved in 250 mM TRIS/HCl pH 7.5, 9 mM DTT) are added. The reaction is started by the addition of 20 μL of ATP Mix (30 mM TRIS/HCl pH 7.5, 0.02% Brij, 0.2 mM sodium orthovanadate, 10 mM magnesium acetate, 0.1 mM EGTA, 1× phosphatase inhibitor cocktail 1 (Sigma, No.: P2850), 50 μM ATP (Sigma, No.: A3377; 15 mM stock solution))—the final concentration of DMSO is 0.5%. After 1 h kinase reaction (the plates are shaken at 500 rpm), the reaction is stopped by the addition of 12 μL/well of 100 mM EDTA, pH 8, and shaken for a further 5 min at RT (500 U/min). 55 μL of the reaction mixture are transferred into a streptavidin plate (Strepta Well High Bind (transparent, 96-well) made by Roche, No.: 11989685001) and incubated for 1 h at RT (shaking at 500 rpm). Then the microtitre plate is washed five times with 200 μL/well D-PBS (Invitrogen, No. 14190). 100 μL of a solution containing DELFIA Eu-N1 Anti-Phosphotyrosine PT66 antibody (Perkin Elmer, No.: AD0040, diluted 1:9000 in DELFIA test buffer (Perkin Elmer, No.: 1244-111)) is then added and it is incubated for 1 h at RT (shaking at 500 rpm). Then the plate is washed five times with 200 μL/well DELFIA washing buffer (Perkin Elmer, No.: 1244-114), 200 μL/well strengthening solution (Perkin Elmer, No.: 1244-105) is added and the whole is incubated for 10 min at RT (shaking at 300 rpm).
The time-delayed europium fluorescence is then measured in a microtitre plate reader (VICTOR^3, Perkin Elmer). The positive control consists of wells that contain solvent (0.5% DMSO in test buffer) and display uninhibited kinase activity. Wells that contain test buffer instead of enzyme act as a control for the background kinase activity.
The IC50 values are determined from concentration-activity analyses by iterative calculation using a sigmoid curve analysis algorithm (FIFTY, based on GraphPAD Prism Version 3.03) with a variable Hill coefficient.

T1 sequence (Q05397 whole entry): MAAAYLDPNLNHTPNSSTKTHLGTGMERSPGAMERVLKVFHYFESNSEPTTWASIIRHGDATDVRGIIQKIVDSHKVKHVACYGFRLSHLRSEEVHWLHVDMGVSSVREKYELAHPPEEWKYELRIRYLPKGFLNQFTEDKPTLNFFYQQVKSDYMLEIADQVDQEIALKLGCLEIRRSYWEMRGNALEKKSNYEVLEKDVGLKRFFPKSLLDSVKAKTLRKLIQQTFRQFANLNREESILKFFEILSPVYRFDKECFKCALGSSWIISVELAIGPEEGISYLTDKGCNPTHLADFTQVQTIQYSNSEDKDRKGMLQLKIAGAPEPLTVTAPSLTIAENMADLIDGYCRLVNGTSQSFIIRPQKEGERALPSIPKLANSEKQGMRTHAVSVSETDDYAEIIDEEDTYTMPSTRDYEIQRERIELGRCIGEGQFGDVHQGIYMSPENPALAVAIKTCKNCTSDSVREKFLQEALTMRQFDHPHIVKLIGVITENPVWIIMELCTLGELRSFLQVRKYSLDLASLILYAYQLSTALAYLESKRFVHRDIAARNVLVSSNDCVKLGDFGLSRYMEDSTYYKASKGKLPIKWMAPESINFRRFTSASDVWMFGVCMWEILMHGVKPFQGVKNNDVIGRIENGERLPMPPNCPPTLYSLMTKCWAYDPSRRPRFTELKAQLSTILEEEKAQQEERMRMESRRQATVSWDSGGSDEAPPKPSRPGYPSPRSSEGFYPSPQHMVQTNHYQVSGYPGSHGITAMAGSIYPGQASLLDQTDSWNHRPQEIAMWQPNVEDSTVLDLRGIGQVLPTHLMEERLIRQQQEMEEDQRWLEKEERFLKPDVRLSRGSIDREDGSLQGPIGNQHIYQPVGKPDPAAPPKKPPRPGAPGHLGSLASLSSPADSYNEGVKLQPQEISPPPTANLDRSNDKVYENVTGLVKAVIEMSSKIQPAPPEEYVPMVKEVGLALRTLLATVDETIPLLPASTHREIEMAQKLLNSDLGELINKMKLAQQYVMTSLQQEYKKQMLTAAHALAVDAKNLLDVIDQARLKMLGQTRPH

On PTK2 [1], `COc1cc(C(=O)NC2CCN(C)CC2)c(Cl)cc1Nc1ncc(C(F)(F)F)c(N[C@@H]2Cc3ccccc3[C@H]2N(C)S(C)(=O)=O)n1` [Example I-60, 2-chloro-4-{4-[(1R,2R)-1-(methanesulphonyl-methyl-amino)-indan-2-ylamino]-5-trifluoromethyl-pyrimidin-2-ylamino}-5-methoxy-N-(1-methyl-piperidin-4-yl)-benzamide] came in with a half-inhibitory concentration (IC50) of 1 nM. This lies in the single-digit nanomolar range.
Regarding `COc1ccc(NC(=O)C2CCN(C)C2)cc1Nc1ncc(C(F)(F)F)c(N[C@@H]2Cc3ccccc3[C@H]2N(C)S(C)(=O)=O)n1` (stereo partly drawn) [Example I-61, 1-methyl-pyrrolidine-3-carboxylic acid (3-{4-[(1R,2R)-1-(methanesulphonyl-methyl-amino)-indan-2-ylamino]-5-trifluoromethyl-pyrimidin-2-ylamino}-4-methoxy-phenyl)-amide], the half-maximal inhibitory concentration (IC50) at PTK2 [2] was 0.43 nM.
On to `COc1ccc(NC(=O)C2CCN(C)CC2)cc1Nc1ncc(C(F)(F)F)c(N[C@@H]2Cc3ccccc3[C@H]2N(C)S(C)(=O)=O)n1` [Example I-62, 1-methyl-piperidine-4-carboxylic acid (3-{4-[(1R,2R)-1-(methanesulphonyl-methyl-amino)-indan-2-ylamino]-5-trifluoromethyl-pyrimidin-2-ylamino}-4-methoxy-phenyl)-amide], for which, on PTK2 [2], the IC50 stood at 0.62 nM.
On the same count and under the same terms, the figure for `COc1ccc(C(=O)NCCN(C)C)cc1Nc1ncc(C(F)(F)F)c(N[C@@H]2Cc3ccccc3[C@H]2N(C)S(C)(=O)=O)n1` [Example I-63, N-(2-dimethylamino-ethyl)-3-{4-[(1R,2R)-1-(methanesulphonyl-methyl-amino)-indan-2-ylamino]-5-trifluoromethyl-pyrimidin-2-ylamino}-4-methoxy-benzamide] is 0.71 nM.
On PTK2 [1], `COc1cc(Nc2ncc(C(F)(F)F)c(N[C@@H]3Cc4ccccc4[C@H]3N(C)S(C)(=O)=O)n2)ccc1C(=O)NC1CCN(C)CC1` [Example I-64] came in with an IC50 of 0.76 nM. In other words, the sub-nanomolar range.
As to `COCCN1CCC(NC(=O)c2ccc(Nc3ncc(C(F)(F)F)c(N[C@@H]4Cc5ccccc5[C@H]4N(C)S(C)(=O)=O)n3)c(OC)c2)CC1` [Example I-65], the midpoint of inhibition against PTK2 [1], the IC50, lay at 1 nM.
Regarding `COc1cc(N2CCN(C(C)(C)C)CC2)ccc1Nc1ncc(C(F)(F)F)c(N[C@@H]2Cc3ccccc3[C@H]2N(C)S(C)(=O)=O)n1` [Example I-66, N-((1R,2R)-2-{2-[4-(4-tert-butyl-piperazin-1-yl)-2-methoxy-phenylamino]-5-trifluoromethyl-pyrimidin-4-ylamino}-indan-1-yl)-N-methyl-methanesulphonamide], the concentration for half-maximal inhibition (IC50) at PTK2 [2] worked out at 0.6 nM. That is a sub-nanomolar value.
`CCc1cc(Nc2ncc(C(F)(F)F)c(N[C@@H]3Cc4ccccc4[C@H]3N(C)S(C)(=O)=O)n2)c(OC)cc1N1CCN(C)CC1` [Example I-67, N-((1R,2R)-2-{2-[5-ethyl-2-methoxy-4-(4-methyl-piperazin-1-yl)-phenylamino]-5-trifluoromethyl-pyrimidin-4-ylamino}-indan-1-yl)-N-methyl-methanesulphonamide]: inhibition on PTK2 [2] was half-maximal at 0.68 nM (IC50). This IC50 and that of the compound before are within 1.5-fold of each other.
Compound `COc1cc(C(=O)NC2CCN(C)CC2)c(C)cc1Nc1ncc(Cl)c(N[C@@H]2Cc3ccccc3[C@H]2N(C)S(C)(=O)=O)n1` [Example I-68] returned a half-inhibitory concentration (IC50) against PTK2 [1] of 1 nM.
On the same count and under the same terms, to `COc1cc(N2CCNCC2)ccc1Nc1ncc(C(F)(F)F)c(N[C@@H]2Cc3ccccc3[C@H]2N(C)S(C)(=O)=O)n1` [Example I-70, N-{(1R,2R)-2-[2-(2-methoxy-4-piperazin-1-yl-phenylamino)-5-trifluoromethyl-pyrimidin-4-ylamino]-indan-1-yl}-N-methyl-methanesulphonamide] belongs 0.98 nM; to `CNCc1ccc(Nc2ncc(C(F)(F)F)c(N[C@@H]3Cc4ccccc4[C@H]3N(C)S(C)(=O)=O)n2)c(OC)c1` [Example I-71, N-{(1R,2R)-2-[2-(2-methoxy-4-methylaminomethyl-phenylamino)-5-trifluoromethyl-pyrimidin-4-ylamino]-indan-1-yl}-N-methyl-methanesulphonamide], 1 nM; to `COCCN1CCN(c2ccc(Nc3ncc(C(F)(F)F)c(N[C@@H]4Cc5ccccc5[C@H]4N(C)S(C)(=O)=O)n3)c(OC)c2)CC1` [Example I-84], 1 nM.
The same measure, in the same setting: the figure for `COc1cc(NC(C)=O)ccc1Nc1ncc(C(F)(F)F)c(N[C@@H]2Cc3ccccc3[C@H]2N(C)S(C)(=O)=O)n1` [Example I-90] is 3 nM; for `COc1cc(Nc2ncc(C(F)(F)F)c(N[C@@H]3Cc4ccccc4[C@H]3N(C)S(C)(=O)=O)n2)ccc1NC(C)=O` [Example I-92] it is 2 nM; for `CNC(=O)c1ccc(Nc2ncc(C(F)(F)F)c(N[C@@H]3c4ccccc4C[C@H]3NS(C)(=O)=O)n2)c(OC)c1` [Example I-95] it is 6 nM.
Same read-out and setting: the figure for `COc1nc(C)ccc1Nc1ncc(C(F)(F)F)c(N[C@@H]2Cc3ccccc3[C@H]2N(C)S(C)(=O)=O)n1` [Example I-96] is 11 nM; for `COc1cc(C(=O)NCCN(C)C)c(C)cc1Nc1ncc(Cl)c(N[C@@H]2Cc3ccccc3[C@H]2N(C)S(C)(=O)=O)n1` [Example I-97] it is 2 nM; for `COc1cc(C(=O)NC2CCN(C)CC2)ccc1Nc1ncc(Br)c(N[C@@H]2Cc3ccccc3[C@H]2N(C)S(C)(=O)=O)n1` [Example I-98, 4-{5-bromo-4-[(1R,2R)-1-(methanesulphonyl-methyl-amino)-indan-2-ylamino]-pyrimidin-2-ylamino}-3-methoxy-N-(1-methyl-piperidin-4-yl)-benzamide] it is 1 nM.
